Patent publication US20080070267A1, “Modulation Of Neurotransmitter Activity In Neurons” (The Regents of the University of California, priority 2004, published 2008)

Key:
[1] = system: Ca^2+ spike activity of cultured embryonic spinal neurons; assay: Suppression of spike activity in dissociated neuron cultures; format: cell-based, Xenopus; details: 2 mM Ca^2+ culture medium
[2] = system: myoballs expressing glutamate receptors (rGluR2); assay: Whole-cell recording of spontaneous synaptic currents from myoballs expressing rGluR2 at neuronal growth cones; format: cell-based, Xenopus; details: myoballs expressing rGluR2 in contact with growth cones

| SMILES | spike activity in vitro [1] | spontaneous synaptic currents (SSCs), glutamatergic [2] |
| --- | --- | --- |
| CC(=O)OCOC(=O)CN(CC(=O)OCOC(C)=O)c1ccccc1OCCOc1ccccc1N(CC(=O)OCOC(C)=O)CC(=O)OCOC(C)=O [BAPTA-AM, bis-(o-aminophenoxy)ethane-N,N,N,N-tetraacetic acid acetoxymethyl ester] | suppression of spike activity | – |
| N#Cc1cc2c(cc1[N+](=O)[O-])=NC(=O)C(=O)N=2 [CNQX] | – | blocked |
